Assay results reported in patent publication US20260193264A1, “BENZOYPARAZINE PYRAZINES AND THEIR USES” (FOGHORN THERAPEUTICS INC., priority 2022, published 2026).

Assays:
[1] = molecular target: T1, HiBiT-BRM fusion protein in stable HeLa cell line (Homo sapiens, UniProt P51531); assay: HiBiT-BRM cell-based degradation assay (Nano-Glo HiBiT Lytic Detection, 24 h); design: DC50: scale not given here; conditions: HeLa HiBiT-BRM cells; for DC50: read-out: BRM HiBit Degradation IC50; for BRM HiBit Degradation Maximum (%): top dose 30 μM
T1 construct: expressed in transfected cells
T1 sequence (P51531 whole entry, the tested form may be a part): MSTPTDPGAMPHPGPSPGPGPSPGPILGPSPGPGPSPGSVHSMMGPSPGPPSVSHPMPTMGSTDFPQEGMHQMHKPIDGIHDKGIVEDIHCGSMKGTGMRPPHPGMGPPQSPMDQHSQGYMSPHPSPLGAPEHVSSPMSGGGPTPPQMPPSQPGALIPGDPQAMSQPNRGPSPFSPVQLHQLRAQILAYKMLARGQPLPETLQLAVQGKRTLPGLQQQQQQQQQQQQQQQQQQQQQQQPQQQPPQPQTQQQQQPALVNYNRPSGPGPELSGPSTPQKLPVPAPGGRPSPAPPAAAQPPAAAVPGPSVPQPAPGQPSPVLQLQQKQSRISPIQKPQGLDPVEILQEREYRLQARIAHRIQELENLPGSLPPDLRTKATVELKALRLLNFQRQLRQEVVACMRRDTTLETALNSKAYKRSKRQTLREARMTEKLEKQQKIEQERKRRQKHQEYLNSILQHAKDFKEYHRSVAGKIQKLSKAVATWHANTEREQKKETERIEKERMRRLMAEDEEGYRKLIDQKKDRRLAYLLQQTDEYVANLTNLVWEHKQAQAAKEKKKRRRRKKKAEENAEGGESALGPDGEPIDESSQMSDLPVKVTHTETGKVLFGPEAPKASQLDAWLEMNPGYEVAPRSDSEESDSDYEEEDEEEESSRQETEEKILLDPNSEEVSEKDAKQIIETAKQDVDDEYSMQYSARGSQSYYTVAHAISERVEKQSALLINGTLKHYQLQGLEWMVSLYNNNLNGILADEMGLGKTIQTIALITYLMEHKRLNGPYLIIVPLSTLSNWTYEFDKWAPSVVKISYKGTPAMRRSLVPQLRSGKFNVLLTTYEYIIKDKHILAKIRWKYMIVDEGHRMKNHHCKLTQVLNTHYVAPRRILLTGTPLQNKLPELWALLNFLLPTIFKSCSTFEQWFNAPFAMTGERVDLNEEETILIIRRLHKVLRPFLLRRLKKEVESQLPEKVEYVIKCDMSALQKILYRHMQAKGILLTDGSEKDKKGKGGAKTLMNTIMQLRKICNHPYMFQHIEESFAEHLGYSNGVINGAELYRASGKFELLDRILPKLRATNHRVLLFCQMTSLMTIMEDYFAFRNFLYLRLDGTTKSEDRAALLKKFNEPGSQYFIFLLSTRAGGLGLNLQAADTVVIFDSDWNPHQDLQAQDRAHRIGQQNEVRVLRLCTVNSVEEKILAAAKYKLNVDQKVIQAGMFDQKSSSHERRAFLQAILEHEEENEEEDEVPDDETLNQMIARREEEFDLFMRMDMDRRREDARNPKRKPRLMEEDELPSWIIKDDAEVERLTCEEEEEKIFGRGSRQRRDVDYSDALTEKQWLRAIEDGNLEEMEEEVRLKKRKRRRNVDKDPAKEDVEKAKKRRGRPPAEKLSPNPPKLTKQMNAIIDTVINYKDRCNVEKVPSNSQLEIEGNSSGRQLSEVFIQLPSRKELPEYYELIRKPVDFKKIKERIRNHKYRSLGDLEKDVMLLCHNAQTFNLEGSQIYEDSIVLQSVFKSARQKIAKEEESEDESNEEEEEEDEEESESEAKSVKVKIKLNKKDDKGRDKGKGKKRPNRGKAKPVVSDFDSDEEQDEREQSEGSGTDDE
Procedure, shortened: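 Luminescence from HiBiT/LgBiT complementation after lysis reports remaining HiBiT-BRM in stable HeLa cells exposed to compound for 24 h. Dosing used 3-fold serial dilutions, 10 points, 30 μM top final concentration. DMSO and a 2 μM BRM/BRG1 degrader standard defined 0% and 100% degradation.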

[2] = molecular target: T2, HiBit-BRG1 fusion protein in stable HeLa cell line expressing HiBit-BRG1 and LgBit (Homo sapiens, UniProt P51532); assay: HiBiT-BRG1 cell-based degradation assay (Nano-Glo HiBiT, 24 h); conditions: HeLa HiBit-BRG1/LgBit cells; for DC50: read-out: BRMG1 HiBit Degradation IC50; for Dmax: top dose 30 μM, read-out: BRG1 HiBit Degradation Maximum (%)
T2 construct: expressed in transfected cells
T2 sequence (P51532 whole entry, the tested form may be a part): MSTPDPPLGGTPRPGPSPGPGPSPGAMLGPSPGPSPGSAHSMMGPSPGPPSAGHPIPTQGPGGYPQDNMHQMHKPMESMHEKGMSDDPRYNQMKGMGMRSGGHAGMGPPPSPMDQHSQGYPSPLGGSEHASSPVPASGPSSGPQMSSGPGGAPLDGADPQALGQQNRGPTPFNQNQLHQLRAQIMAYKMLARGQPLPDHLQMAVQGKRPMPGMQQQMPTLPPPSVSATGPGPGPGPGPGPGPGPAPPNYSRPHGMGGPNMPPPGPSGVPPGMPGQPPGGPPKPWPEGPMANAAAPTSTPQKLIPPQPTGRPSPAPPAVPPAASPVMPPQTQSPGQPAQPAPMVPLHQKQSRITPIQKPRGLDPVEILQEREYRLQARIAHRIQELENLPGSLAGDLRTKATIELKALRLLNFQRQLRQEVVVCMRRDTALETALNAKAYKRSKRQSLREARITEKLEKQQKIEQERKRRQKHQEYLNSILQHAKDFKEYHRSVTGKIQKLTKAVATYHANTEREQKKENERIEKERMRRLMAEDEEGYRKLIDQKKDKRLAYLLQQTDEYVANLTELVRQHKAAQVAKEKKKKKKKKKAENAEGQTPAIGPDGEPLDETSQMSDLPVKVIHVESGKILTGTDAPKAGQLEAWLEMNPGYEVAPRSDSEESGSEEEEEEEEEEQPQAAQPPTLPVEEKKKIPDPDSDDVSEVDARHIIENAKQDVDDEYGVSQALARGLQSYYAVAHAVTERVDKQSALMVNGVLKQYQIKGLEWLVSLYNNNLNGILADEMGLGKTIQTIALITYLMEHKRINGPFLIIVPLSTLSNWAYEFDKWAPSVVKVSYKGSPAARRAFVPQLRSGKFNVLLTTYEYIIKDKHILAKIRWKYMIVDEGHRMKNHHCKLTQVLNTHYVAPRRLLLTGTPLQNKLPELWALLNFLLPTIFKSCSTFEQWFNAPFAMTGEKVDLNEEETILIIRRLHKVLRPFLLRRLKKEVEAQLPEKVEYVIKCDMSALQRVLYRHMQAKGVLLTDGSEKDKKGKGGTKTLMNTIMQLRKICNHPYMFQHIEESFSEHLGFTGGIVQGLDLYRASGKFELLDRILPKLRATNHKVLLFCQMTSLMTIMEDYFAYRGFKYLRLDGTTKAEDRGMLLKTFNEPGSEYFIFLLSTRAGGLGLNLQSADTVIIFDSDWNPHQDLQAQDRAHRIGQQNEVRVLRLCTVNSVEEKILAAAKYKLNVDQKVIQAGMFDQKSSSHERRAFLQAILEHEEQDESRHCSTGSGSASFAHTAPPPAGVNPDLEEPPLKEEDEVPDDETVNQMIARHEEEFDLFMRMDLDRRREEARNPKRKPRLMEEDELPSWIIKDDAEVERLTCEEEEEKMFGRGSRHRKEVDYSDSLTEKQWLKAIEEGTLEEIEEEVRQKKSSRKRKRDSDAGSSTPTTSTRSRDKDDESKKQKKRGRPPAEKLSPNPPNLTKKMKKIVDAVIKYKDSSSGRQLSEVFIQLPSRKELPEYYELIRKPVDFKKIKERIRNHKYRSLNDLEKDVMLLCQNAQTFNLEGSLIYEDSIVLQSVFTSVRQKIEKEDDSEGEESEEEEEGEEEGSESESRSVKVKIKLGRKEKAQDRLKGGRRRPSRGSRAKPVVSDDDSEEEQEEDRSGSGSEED
Procedure, shortened: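 Stable HeLa line co-expressing HiBiT-BRG1 and LgBiT, compound-treated 24 h; luminescence read after Nano-Glo HiBiT lytic reagent. % degradation normalised between DMSO (high control) and 2 μM reference BRM/BRG1 degrader (low control).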

Row | DC50 [1] [µM] | DC50 [2] [µM] | Dmax [2] [%] | SMILES | BRM HiBit Degradation Maximum (%) [1]
1 | < 0.01 | > 0.01 | > 50 | Cc1cc(-c2cc([C@H](C(=O)N3C[C@H](O)C[C@H]3C(=O)N[C@@H](C)c3ccc(-c4scnc4C)cc3)C(C)C)on2)cnc1N1CCC(c2ccc3nnc(-c4ccccc4O)cc3c2)CC1 [Compound 64, (2S,4R)-4-hydroxy-1-((R)-2-(3-(6-(4-(3-(2-hydroxyphenyl)cinnolin-6-yl)piperidin-1-yl)-5-methylpyridin-3-yl)isoxazol-5-yl)-3-methylbutanoyl)-N-((S)-1-(4-(4-methylthiazol-5-yl)phenyl)ethyl)pyrrolidine-2-carboxamide] | A (“A” indicates maximum degradation ≥75%)
2 | < 0.01 |  | < 50 | Cc1ncsc1-c1ccc([C@H](C)NC(=O)[C@@H]2C[C@@H](O)CN2C(=O)[C@@H](c2cc(N3CC4(CN(c5ccc6nnc(-c7ccccc7O)cc6c5)C4)C3)no2)C(C)C)cc1 [Compound 66, (2S,4R)-4-hydroxy-1-((R)-2-(3-(6-(3-(2-hydroxyphenyl)cinnolin-6-yl)-2,6-diazaspiro[3.3]heptan-2-yl)isoxazol-5-yl)-3-methylbutanoyl)-N-((S)-1-(4-(4-methylthiazol-5-yl)phenyl)ethyl)pyrrolidine-2-carboxamide] | A (“A” indicates maximum degradation ≥75%)
3 | < 0.01 | > 0.01 | > 75 | Cc1ncsc1-c1ccc([C@H](C)NC(=O)[C@@H]2C[C@@H](O)CN2C(=O)[C@@H](c2cc(N3CCC4(CC3)CN(c3ccc5nnc(-c6ccccc6O)cc5c3)C4)no2)C(C)C)cc1 [Compound 67, (2S,4R)-4-hydroxy-1-((R)-2-(3-(2-(3-(2-hydroxyphenyl)cinnolin-6-yl)-2,7-diazaspiro[3.5]nonan-7-yl)isoxazol-5-yl)-3-methylbutanoyl)-N-((S)-1-(4-(4-methylthiazol-5-yl)phenyl)ethyl)pyrrolidine-2-carboxamide] | A (“A” indicates maximum degradation ≥75%)
4 | < 0.01 | > 0.01 | > 75 | Cc1ncsc1-c1ccc([C@H](C)NC(=O)[C@@H]2C[C@@H](O)CN2C(=O)[C@@H](c2cc(-c3cnc(N4CC(c5cc6nnc(-c7ccccc7O)cc6cc5C5CC5)C4)nc3)no2)C(C)C)cc1 [Compound 68, (2S,4R)-1-((R)-2-(3-(2-(3-(6-cyclopropyl-3-(2-hydroxyphenyl)cinnolin-7-yl)azetidin-1-yl)pyrimidin-5-yl)isoxazol-5-yl)-3-methylbutanoyl)-4-hydroxy-N-((S)-1-(4-(4-methylthiazol-5-yl)phenyl)ethyl)pyrrolidine-2-carboxamide] | A (“A” indicates maximum degradation ≥75%)
5 | < 0.01 | > 0.1 | > 50 | Cc1nc(N2CCC(c3ccc4nnc(-c5ccccc5O)cc4c3)CC2)ccc1-c1cc([C@H](C(=O)N2C[C@H](O)C[C@H]2C(=O)N[C@@H](C)c2ccc(-c3scnc3C)cc2)C(C)C)on1 [Compound 69, (2S,4R)-4-hydroxy-1-((R)-2-(3-(6-(4-(3-(2-hydroxyphenyl)cinnolin-6-yl)piperidin-1-yl)-2-methylpyridin-3-yl)isoxazol-5-yl)-3-methylbutanoyl)-N-((S)-1-(4-(4-methylthiazol-5-yl)phenyl)ethyl)pyrrolidine-2-carboxamide] | A (“A” indicates maximum degradation ≥75%)
6 | > 0.01 | > 0.01 | > 50 | Cc1cc(N2CCC(c3ccc4nnc(-c5ccccc5O)cc4c3)CC2)ncc1-c1cc([C@H](C(=O)N2C[C@H](O)C[C@H]2C(=O)N[C@@H](C)c2ccc(-c3scnc3C)cc2)C(C)C)on1 [Compound 70, (2S,4R)-4-hydroxy-1-((R)-2-(3-(6-(4-(3-(2-hydroxyphenyl)cinnolin-6-yl)piperidin-1-yl)-4-methylpyridin-3-yl)isoxazol-5-yl)-3-methylbutanoyl)-N-((S)-1-(4-(4-methylthiazol-5-yl)phenyl)ethyl)pyrrolidine-2-carboxamide] | A (“A” indicates maximum degradation ≥75%)
7 | < 0.01 | < 0.01 | > 75 | Cc1ncsc1-c1ccc([C@H](C)NC(=O)[C@@H]2C[C@@H](O)CN2C(=O)[C@@H](c2cc(N3CCC4(CC3)CC(c3ccc5nnc(-c6ccccc6O)cc5c3)C4)no2)C(C)C)cc1 [Compound 71, (2S,4R)-4-hydroxy-1-[(2R)-2-(3-{2-[3-(2-hydroxyphenyl)cinnolin-6-yl]-7-azaspiro[3.5]nonan-7-yl}-1,2-oxazol-5-yl)-3-methylbutanoyl]-N-[(1S)-1-[4-(4-methyl-1,3-thiazol-5-yl)phenyl]ethyl]pyrrolidine-2-carboxamide] | A (“A” indicates maximum degradation ≥75%)
8 | < 0.01 | > 0.01 | > 75 | Cc1ncsc1-c1ccc([C@H](C)NC(=O)[C@@H]2C[C@@H](O)CN2C(=O)[C@@H](c2cc(N3CCC4(CCN(c5ccc6nnc(-c7ccccc7O)cc6c5)C4)CC3)no2)C(C)C)cc1 [Compound 72, (2S,4R)-4-hydroxy-1-((R)-2-(3-(2-(3-(2-hydroxyphenyl)cinnolin-6-yl)-2,8-diazaspiro [4.5]decan-8-yl)isoxazol-5-yl)-3-methylbutanoyl)-N-((S)-1-(4-(4-methylthiazol-5-yl)phenyl)ethyl)pyrrolidine-2-carboxamide] | A (“A” indicates maximum degradation ≥75%)
9 | < 0.01 |  | < 50 | Cc1ncsc1-c1ccc([C@H](C)NC(=O)[C@@H]2C[C@@H](O)CN2C(=O)[C@@H](c2cc(N3CC[C@@H](c4ccc5nnc(-c6ccccc6O)cc5c4)C3)no2)C(C)C)cc1 [Compound 73, (2S,4R)-4-hydroxy-1-((R)-2-(3-((S)-3-(3-(2-hydroxyphenyl)cinnolin-6-yl)pyrrolidin-1-yl)isoxazol-5-yl)-3-methylbutanoyl)-N-((S)-1-(4-(4-methylthiazol-5-yl)phenyl)ethyl)pyrrolidine-2-carboxamide] | A (“A” indicates maximum degradation ≥75%)
10 | < 0.01 |  | < 50 | Cc1ncsc1-c1ccc([C@H](C)NC(=O)[C@@H]2C[C@@H](O)CN2C(=O)[C@@H](c2cc(N3CCC(c4ccc5cc(-c6ccccc6O)nnc5c4)CC3)no2)C(C)C)cc1 [Compound 74, (2S,4R)-4-hydroxy-1-((R)-2-(3-(4-(3-(2-hydroxyphenyl)cinnolin-7-yl)piperidin-1-yl)isoxazol-5-yl)-3-methylbutanoyl)-N-((S)-1-(4-(4-methylthiazol-5-yl)phenyl)ethyl)pyrrolidine-2-carboxamide] | A (“A” indicates maximum degradation ≥75%)
11 | < 0.01 | > 0.01 | > 75 | Cc1ncsc1-c1ccc([C@H](C)NC(=O)[C@@H]2C[C@@H](O)CN2C(=O)[C@@H](c2cc(N3CCC4(CC[C@H](c5ccc6nnc(-c7ccccc7O)cc6c5)C4)CC3)no2)C(C)C)cc1 [Compound 75, (2S,4R)-4-hydroxy-1-((R)-2-(3-((S)-2-(3-(2-hydroxyphenyl)cinnolin-6-yl)-8-azaspiro[4.5]decan-8-yl)isoxazol-5-yl)-3-methylbutanoyl)-N-((S)-1-(4-(4-methylthiazol-5-yl)phenyl)ethyl)pyrrolidine-2-carboxamide] | A (“A” indicates maximum degradation ≥75%)
